2 compounds from paper PMC3665795, “Crystal Structure of a Novel N-Substituted L-Amino Acid Dioxygenase from Burkholderia ambifaria AMMD” (PLoS ONE, 2013) can be followed below.

Experiment [1] concerns the target T1, SadA (Burkholderia ambifaria, UniProt Q0B2N4).
T1 construct: gene Bamb_6045; dimer
T1 sequence (Q0B2N4 1-273): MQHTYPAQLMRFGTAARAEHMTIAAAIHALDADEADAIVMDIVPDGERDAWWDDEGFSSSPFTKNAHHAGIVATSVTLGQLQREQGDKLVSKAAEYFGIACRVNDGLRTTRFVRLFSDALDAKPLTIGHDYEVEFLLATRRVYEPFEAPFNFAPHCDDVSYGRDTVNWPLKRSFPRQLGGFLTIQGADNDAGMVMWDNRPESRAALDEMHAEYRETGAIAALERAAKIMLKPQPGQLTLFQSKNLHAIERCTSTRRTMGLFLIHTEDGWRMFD
Description: X-ray crystal structure, […] Å. In kind it is binding. The conditions noted are these: Zn(II) in place of Fe(II); cocrystallized with 10 mM α-KG; 0.1 M CHES pH 9.5, 30% PEG 3,000, 293 K; active site, chain A, bidentate to the metal.

The target of experiment [2] is SadA, N-substituted L-amino acid dioxygenase from Burkholderia ambifaria AMMD (Burkholderia ambifaria AMMD). In words: SEC; Superdex 200 size-exclusion chromatography; calibrated with ovalbumin (43 kDa) and conalbumin (75 kDa).

In the case of `O=C(O)CCC(=O)C(=O)O` [α-KG], the “X-ray crystal structure, 1.98 Å” value in experiment [1] is on record as “only one α-KG molecule is clearly observed in chain A of the SadA.Zn(II).α-KG structure”. The compound “SadA, N-substituted L-amino acid dioxygenase from Burkholderia ambifaria AMMD (enzyme)” returned a stoichiometry N in experiment [2] of 2.
